{
  "source": "patent US20200171051A1",
  "about": "“METHODS FOR TREATING RENAL INJURY BY […] UPREGULATING P21” (RENIBUS THERAPEUTICS, INC., priority 2018, published 2020)",
  "key": {"[1]": {"details": "relative to cortisol = 1; cited from earlier work"}, "[2]": {"system": "renal cortical p21", "test": "Glycerol AKI model: renal cortical p21 mRNA (RT-PCR, factored by GAPDH) and p21 protein (ELISA)", "type": "in vivo, male CD-1 mice", "method": "(§1) The present inventors conducted studies to better understand the factors that drive renal p21 expression during AKI. All experiments were performed using male CD-1 mice (35-40 grams, Charles River Laboratories, Wilmington, Del.) maintained under routine vivarium conditions with free food and water access. The AKI models were approved by the institution's Animal Care and Utilization Committee). All surgical procedures were conducted under deep pentobarbital anesthesia (40-50 mg/Kg IP).\nMice were briefly anesthetized with isoflurane, and then subjected to intramuscular glycerol injection (administered in equally divided doses into each hind limb). The glycerol dose ware varied (6, 6.5, 7, 7.5, 8, 8.5, 9 ml/Kg; n˜2-3 per dose) in order to produce variable degrees of renal injury. At 4 hrs post glycerol injection, a tail vein tail vein blood sample (˜25 μl) was obtained, and at 18 hrs, the mice were deeply anesthetized with pentobarbital. The abdominal cavity was opened through a midline abdominal incision, a terminal vena cava blood sample was obtained, the kidneys were removed, iced, and renal cortical samples were cut and extracted for both protein and total RNA (RNeasy Mini+; Qiagen; Germantown, Md.). A terminal urine sample was collected from the urinary bladder. Plasma samples were assayed for blood urea nitrogen (BUN) and creatinine (Cr). Johnson A C, Zager R A. Plasma and urinary p21: potential biomarkers of AKI and renal aging. Am J Physiol 2018; Aug. 1. doi: 10.1152/ajprenal.00328.2018. [Epub ahead of print]. Renal cortical, plasma, and urinary p21 concentrations were determined with a ‘sandwich’ ELISA which employs two distinct monoclonal antibodies (capture; detection) directed against two different p21 epitopes, conferring p21 specificity; (#2120721; Abcam, Cambridge, Mass.). Renal cortical p21 mRNA levels were determined by RT-PCR, factored by GAPDH. Ten normal mice provided control plasma, urine, and tissue values for comparisons.\nTo assess renal cortical changes at an earlier time point than that noted above (18 hrs post glycerol injection), an additional 5 mice were subjected to glycerol injection (8.5 ml/Kg) and 4 hrs later, renal cortical protein/RNA samples were obtained for use in the above noted assays. The results were contrasted to those observed in 5 normal mice.\nPifithrin-α is a stable, water soluble, p53 inhibitor which blocks activation of p53 responsive genes. Dagher P C, Mai E M, Hato T, Lee S Y, Anderson M D Karozos S C Mang H E, Knipe N L, Plotkin Z, Sutton T A: The p53 inhibitor pifithrin can stimulate fibrosis in a rat model of ischemic acute kidney injury. Am J Physiol Renal Physiol 302: F284-F291, 2012; Komarov P G, Komarova E A, Kondratov R V, Christov-Tselkov K, Coon J S, Chernov M V et al. A chemical inhibitor of p53 that protects mice from the side effects of cancer therapy. Science 285: 1733-1737, 1999. As such, it has been used to differentiate p53-dependent vs. p53-independent pathways. To further explore the potential role of p53 on p21 gene activation, 3 mice were injected IP with 10 mg/Kg pifithrin-α (10% DMSO in saline; EMD Millipore #506154; Burlington, Mass.). Three additional mice received vehicle injection. Immediately thereafter the mice were injected with […] glycerol. Four hrs post glycerol injection, renal cortical tissues were analyzed for p21 and p53 mRNAs.\nInflammation can induce p21 gene activation via the inflammatory cascade (1, 2). Basile J R, Eichten A, Zacny V, Münger K. NF-kappaB-mediated induction of p21(Cip1/Waf1) by tumor necrosis factor alpha induces growth arrest and cytoprotection in normal human keratinocytes. Mol Cancer Res. 2003; 4: 262-270; Bellido T, O'Brien C A, Roberson P K, Manolagas S C: Transcriptional Activation of the p21WAF1,CIP1,SDI1 Gene by Interleukin-6 Type Cytokines. J Biol Chem 1998; 273:21137-21144. […]"}, "[3]": {"details": "in vivo; cited from earlier work"}, "[4]": {"system": "renal cortical p21", "test": "Normal mice (no renal injury): renal cortical p21 protein and mRNA", "type": "in vivo, male CD-1 mice", "method": "The present inventors conducted studies to better understand the factors that drive renal p21 expression during AKI. All experiments were performed using male CD-1 mice (35-40 grams, Charles River Laboratories, Wilmington, Del.) maintained under routine vivarium conditions with free food and water access. The AKI models were approved by the institution's Animal Care and Utilization Committee). All surgical procedures were conducted under deep pentobarbital anesthesia (40-50 mg/Kg IP). Mice were briefly anesthetized with isoflurane, and then subjected to intramuscular glycerol injection (administered in equally divided doses into each hind limb). […] At 4 hrs post glycerol injection, a tail vein tail vein blood sample (˜25 μl) was obtained, and at 18 hrs, the mice were deeply anesthetized with pentobarbital. The abdominal cavity was opened through a midline abdominal incision, a terminal vena cava blood sample was obtained, the kidneys were removed, iced, and renal cortical samples were cut and extracted for both protein and total RNA (RNeasy Mini+; Qiagen; Germantown, Md.). A terminal urine sample was collected from the urinary bladder. Plasma samples were assayed for blood urea nitrogen (BUN) and creatinine (Cr). Johnson A C, Zager R A. Plasma and urinary p21: potential biomarkers of AKI and renal aging. Am J Physiol 2018; […] [Epub ahead of print]. Renal cortical, plasma, and urinary p21 concentrations were determined with a ‘sandwich’ ELISA which employs two distinct monoclonal antibodies (capture; detection) directed against two different p21 epitopes, conferring p21 specificity; (#2120721; Abcam, Cambridge, Mass.). Renal cortical p21 mRNA levels were determined by RT-PCR, factored by GAPDH. Ten normal mice provided control plasma, urine, and tissue values for comparisons. To determine the impact of DXM on renal p21 expression in the absence of renal injury, 5 mice were injected with DXM as above, and 4 hrs later p21 protein/mRNA levels were measured and compared to normal values. Given an unexpected finding that corticosteroid injection increased, rather than suppressed, p21 expression, and given that endogenous cortisol levels were markedly elevated post-glycerol injection, we questioned whether glucocorticoid receptor (GCR) blockade would decrease p21 expression. […] Four hrs later, the kidneys were removed and renal cortices were analyzed for p21 mRNA and protein levels. Four mice, treated with mifepristone in the absence of glycerol injection, served to evaluate its effects in the absence of glycerol injection."}, "[5]": {"system": "renal cortical p53 mRNA", "test": "Glycerol AKI model: renal cortical p53 mRNA", "type": "in vivo, male CD-1 mice", "details": "4 hr post glycerol + pifithrin-α 10 mg/Kg IP; mean ± SEM; glycerol alone 0.75±0.02; NS", "method": "as §1\nMice were briefly anesthetized with isoflurane, and then subjected to intramuscular glycerol injection (administered in equally divided doses into each hind limb). The glycerol dose ware varied (6, 6.5, 7, 7.5, 8, 8.5, 9 ml/Kg; n˜2-3 per dose) in order to produce variable degrees of renal injury. […] Renal cortical, plasma, and urinary p21 concentrations were determined with a ‘sandwich’ ELISA which employs two distinct monoclonal antibodies (capture; detection) directed against two different p21 epitopes, conferring p21 specificity; (#2120721; Abcam, Cambridge, Mass.). Renal cortical p21 mRNA levels were determined by RT-PCR, factored by GAPDH. […]\nPifithrin-α is a stable, water soluble, p53 inhibitor which blocks activation of p53 responsive genes. […] Four hrs post glycerol injection, renal cortical tissues were analyzed for p21 and p53 mRNAs. […]"}, "[6]": {"details": "normal mice, within 4 hrs of DXM injection (250 μg IP)"}, "[7]": {"details": "4 hr post glycerol kidneys, DXM 250 μg IP 30 min before glycerol 8.5 ml/Kg"}, "[8]": {"details": "control mice, 4 hrs post MFP 30 mg/Kg, in words"}, "[9]": {"details": "glycerol treated mice, 4 hrs, MFP 30 mg/Kg, in words"}},
  "data": [
    {"smiles": "C[C@]12CCC(=O)C=C1CC[C@@H]1[C@@H]2[C@@H](O)C[C@@]2(C)[C@H]1CC[C@]2(O)C(=O)CO", "note": "[Cortisol]", "values": [
      {"measurement": "Glucocorticoid potency", "setting": "[1]", "value": 1},
      {"measurement": "effect on 4 hr post glycerol p21 mRNA levels", "setting": "[2]; cortisol 1 mg/Kg IP 30 min before glycerol 8.5 ml/Kg, in words", "value": "to the same degree as did DXM injection"},
      {"measurement": "Terminal half-life", "setting": "[3]", "value": 8, "unit": "h"}
    ]},
    {"smiles": "C[C@]12CCC(=O)C=C1CC[C@@H]1[C@@H]2C(=O)C[C@@]2(C)[C@H]1CC[C@]2(O)C(=O)CO", "note": "[Cortisone]", "values": [
      {"measurement": "Glucocorticoid potency", "setting": "[1]", "value": 0.8}
    ]},
    {"smiles": "C[C@@H]1C[C@H]2[C@@H]3CCC4=CC(=O)C=C[C@]4(C)[C@@]3(F)[C@@H](O)C[C@]2(C)[C@@]1(O)C(=O)CO", "note": "[Dexamethasone]", "values": [
      {"measurement": "increase in renal cortical p21 mRNA", "setting": "[4]; [6]", "value": 15, "unit": "×"},
      {"measurement": "increase in renal cortical p21 protein", "setting": "[4]; [6]", "value": 10, "unit": "×"},
      {"measurement": "increase in p21 mRNA", "setting": "[2]; [7]", "value": "~3", "unit": "fold"},
      {"measurement": "increase in p21 protein", "setting": "[2]; [7]", "value": "~3", "unit": "fold"}
    ]},
    {"smiles": "C[C@H]1C[C@@H]2[C@H]([C@@H](O)C[C@@]3(C)[C@H]2CC[C@]3(O)C(=O)CO)[C@@]2(C)C=CC(=O)C=C12", "note": "[Methylprednisolone]", "values": [
      {"measurement": "Terminal half-life", "setting": "[3]", "value": "18 to 40", "unit": "h"}
    ]},
    {"smiles": "CC#C[C@]1(O)CC[C@H]2[C@@H]3CCC4=CC(=O)CCC4=C3[C@@H](c3ccc(N(C)C)cc3)C[C@@]21C", "note": "[Mifepristone]", "values": [
      {"measurement": "effect on p21 mRNA values", "setting": "[4]; [8]", "value": "no significant decrease"},
      {"measurement": "effect on p21 protein values", "setting": "[4]; [8]", "value": "no significant decrease"},
      {"measurement": "effect on p21 protein levels", "setting": "[2]; [9]", "value": "normalized"},
      {"measurement": "effect on post glycerol p21 mRNA levels", "setting": "[2]; [9]", "value": "modest reduction"}
    ]},
    {"smiles": "C[C@]12C=CC(=O)C=C1CC[C@@H]1[C@@H]2[C@@H](O)C[C@@]2(C)[C@H]1CC[C@]2(O)C(=O)CO", "note": "[Prednisolone]", "values": [
      {"measurement": "Glucocorticoid potency", "setting": "[1]", "value": 4},
      {"measurement": "Terminal half-life", "setting": "[3]", "value": "16 to 36", "unit": "h"}
    ]},
    {"smiles": "C[C@]12C=CC(=O)C=C1CC[C@@H]1[C@@H]2C(=O)C[C@@]2(C)[C@H]1CC[C@]2(O)C(=O)CO", "note": "[Prednisone]", "values": [
      {"measurement": "Terminal half-life", "setting": "[3]", "value": "16 to 36", "unit": "h"}
    ]},
    {"smiles": "C[C@]12C=CC(=O)C=C1CC[C@H]1[C@@H]3C[C@@H](O)[C@](O)(C(=O)CO)[C@@]3(C)C[C@H](O)[C@@]12F", "note": "[Triamcinolone]", "values": [
      {"measurement": "Glucocorticoid potency", "setting": "[1]", "value": 5},
      {"measurement": "Terminal half-life", "setting": "[3]", "value": "12 to 36", "unit": "h"}
    ]},
    {"smiles": "Cc1ccc(C(=O)Cn2c3c(sc2=N)CCCC3)cc1", "note": "[pifithrin-α, Pifithrin-α]", "values": [
      {"measurement": "renal cortical p53 mRNA", "setting": "[5]", "value": "0.7±0.03"},
      {"measurement": "renal cortical p21 mRNA", "setting": "[2]; 4 hr post glycerol + pifithrin-α 10 mg/Kg IP, mean ± SEM, controls 0.34±0.1, glycerol alone 1.43±0.11", "value": "1.71±0.08"}
    ]}
  ]
}
